In ChEMBL document CHEMBL1127828, “The discovery of an unusually selective and novel cocaine analog: difluoropine. Synthesis and inhibition of binding at cocaine recognition sites” (J Med Chem, 1994):
pIC50: −log10 of the molar value.

Biological target: Sodium-dependent serotonin transporter (Homo sapiens, UniProt P31645)
Test: Binding affinity of [3H]citalopram for serotonin transporter in monkey
Design: species or system Cercopithecidae

Chain of Sodium-dependent serotonin transporter (P31645 whole entry): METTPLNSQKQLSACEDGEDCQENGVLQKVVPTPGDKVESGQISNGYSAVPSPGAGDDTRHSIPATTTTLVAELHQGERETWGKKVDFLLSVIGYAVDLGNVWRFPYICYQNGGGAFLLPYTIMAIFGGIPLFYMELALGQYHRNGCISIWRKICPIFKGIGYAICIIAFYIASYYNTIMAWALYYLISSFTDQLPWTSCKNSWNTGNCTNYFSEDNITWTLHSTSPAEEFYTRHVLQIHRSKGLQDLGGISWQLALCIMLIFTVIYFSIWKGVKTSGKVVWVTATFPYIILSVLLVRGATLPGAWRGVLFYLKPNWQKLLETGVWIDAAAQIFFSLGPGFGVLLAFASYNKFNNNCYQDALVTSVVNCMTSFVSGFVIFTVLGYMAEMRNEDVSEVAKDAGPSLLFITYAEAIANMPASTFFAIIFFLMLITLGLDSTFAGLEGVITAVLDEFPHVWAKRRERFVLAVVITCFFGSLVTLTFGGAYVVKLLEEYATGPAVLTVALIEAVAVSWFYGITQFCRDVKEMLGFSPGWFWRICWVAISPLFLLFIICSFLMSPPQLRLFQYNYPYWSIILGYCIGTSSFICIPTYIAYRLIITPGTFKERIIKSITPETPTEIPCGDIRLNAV

Structure (SMILES) | pIC50
COC(=O)C1C2CC[C@H](C[C@@H]1c1ccc(I)cc1)N2C (some centres undefined) | 8.60
COC(=O)[C@@H]1C2CCC(C[C@@H]1OC(c1ccc(F)cc1)c1ccc(F)cc1)N2C (some centres undefined) | 5.45
COC(=O)[C@@H]1[C@H]2CCC(C[C@H]1OC(c1ccc(F)cc1)c1ccc(F)cc1)N2C | 5.74
COC(=O)C1C2CC[C@H](C[C@@H]1OC(c1ccc(F)cc1)c1ccc(F)cc1)N2C (stereo in doubt; R-7) | 5.26
COC(=O)C1C2CC[C@H](C[C@H]1OC(c1ccc(F)cc1)c1ccc(F)cc1)N2C (stereo in doubt; R-8) | 5.70
COC(=O)C1C2CC[C@H](C[C@@H]1OC(c1ccc(F)cc1)c1ccc(F)cc1)N2C (stereo in doubt; R-9) | 5.84
COC(=O)C1C2CC[C@H](C[C@H]1OC(c1ccc(F)cc1)c1ccc(F)cc1)N2C (stereo in doubt; R-10) | 5.04
COC(=O)C1C2CC[C@H](C[C@H]1OC(c1ccc(F)cc1)c1ccc(F)cc1)N2C (stereo in doubt; S-7) | 5.39
COC(=O)C1C2CC[C@H](C[C@H]1OC(c1ccc(F)cc1)c1ccc(F)cc1)N2C (stereo in doubt; S-10) | 5.31
